molecular target: T1, SIRT1 (Homo sapiens, UniProt Q96EB6); test: Mass spectrometry based SIRT1 deacetylation assay (activation); type: biochemical; settings: 10 nM SIRT1, 0.5 μM peptide substrate, 120 μM βNAD+, 25 min at 25° C.
T1 sequence (Q96EB6 1-747): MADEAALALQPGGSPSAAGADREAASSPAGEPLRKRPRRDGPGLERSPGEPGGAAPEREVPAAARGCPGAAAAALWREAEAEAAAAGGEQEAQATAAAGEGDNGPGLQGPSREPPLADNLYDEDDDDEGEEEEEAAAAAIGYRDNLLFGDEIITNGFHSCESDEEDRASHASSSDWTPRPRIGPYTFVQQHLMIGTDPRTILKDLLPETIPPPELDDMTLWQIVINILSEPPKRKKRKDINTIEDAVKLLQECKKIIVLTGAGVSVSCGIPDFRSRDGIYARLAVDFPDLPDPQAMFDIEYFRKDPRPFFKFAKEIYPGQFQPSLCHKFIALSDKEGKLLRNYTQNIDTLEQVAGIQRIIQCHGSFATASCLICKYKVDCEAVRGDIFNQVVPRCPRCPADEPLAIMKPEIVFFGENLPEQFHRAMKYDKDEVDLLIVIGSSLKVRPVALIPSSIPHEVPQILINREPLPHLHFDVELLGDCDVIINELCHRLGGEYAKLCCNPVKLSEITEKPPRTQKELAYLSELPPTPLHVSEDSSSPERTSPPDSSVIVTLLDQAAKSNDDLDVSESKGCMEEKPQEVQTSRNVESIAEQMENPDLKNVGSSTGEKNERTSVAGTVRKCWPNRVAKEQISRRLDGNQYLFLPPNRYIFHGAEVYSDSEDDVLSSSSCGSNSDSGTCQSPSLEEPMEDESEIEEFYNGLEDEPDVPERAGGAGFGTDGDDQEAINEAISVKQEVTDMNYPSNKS
Text: A mass spectrometry based assay was used to identify modulators of SIRT1 activity. The mass spectrometry based assay utilizes a peptide having 20 amino acid residues as follows: Ac-EE-K (biotin)-GQSTSSHSK (Ac)N1eSTEG-K(5TMR)-EE-NH2 (SEQ ID NO: 1) wherein K(Ac) is an acetylated lysine residue and Nle is a norleucine. The peptide is labeled with the fluorophore 5TMR (excitation 540 nm/emission 580 nm) at the C-terminus. The sequence of the peptide substrate is based on p53 with several modifications. In addition, the methionine residue naturally present in the sequence was replaced with the norleucine because the methionine may be susceptible to oxidation during synthesis and purification.
The mass spectrometry assay is conducted as follows: 0.5 μM peptide substrate and 120 μM βNAD^+ is incubated with 10 nM SIRT1 for 25 minutes at 25° C. in a reaction buffer (50 mM Tris-acetate pH 8, 137 mM NaCl, 2.7 mM KCl, 1 mM MgCl2, 5 mM DTT, 0.05% BSA). Test compounds may be added to the reaction as described above. The SirT1 gene is cloned into a T7-promoter containing vector and transformed into BL21(DE3). After the 25 minute incubation with SIRT1, 10 μL of 10% formic acid is added to stop the reaction. Reactions are sealed and frozen for later mass spec analysis. Determination of the mass of the substrate peptide allows for precise determination of the degree of acetylation (i.e. starting material) as compared to deacetylated peptide (product).
A control for inhibition of sirtuin activity is conducted by adding 1 μL of 500 mM nicotinamide as a negative control at the start of the reaction (e.g., permits determination of maximum sirtuin inhibition). A control for activation of sirtuin activity is conducted using 10 nM of sirtuin protein, with 1 μL of DMSO in place of compound, to determine the amount of deacetylation of the substrate at a given timepoint within the linear range of the assay. This timepoint is the same as that used for test compounds and, within the linear range, the endpoint represents a change in velocity.
For the above assay, SIRT1 protein was expressed and purified as follows. The SirT1 gene was cloned into a T7-promoter containing vector and transformed into BL21(DE3). The protein was expressed by induction with 1 mM IPTG as an N-terminal His-tag fusion protein at 18° C. overnight and harvested at 30,000×g. Cells were lysed with lysozyme in lysis buffer (50 mM Tris-HCl, 2 mM Tris[2-carboxyethyl]phosphine (TCEP), 10 μM ZnCl2, 200 mM NaCl) and further treated with sonication for 10 min for complete lysis. The protein was purified over a Ni-NTA column (Amersham) and fractions containing pure protein were pooled, concentrated and run over a sizing column (Sephadex S200 26/60 global). The peak containing soluble protein was collected and run on an Ion-exchange column (MonoQ). Gradient elution (200 mM-500 mM NaCl) yielded pure protein. This protein was concentrated and dialyzed against dialysis buffer (20 mM Tris-HCl, 2 mM TCEP) overnight. The protein was aliquoted and frozen at −80° C. until further use.
Sirtuin modulating compounds that activated SIRT1 were identified using the assay described above and are shown below in Table 1. The EC1.5 values represent the concentration of test compounds that result in 150% activation of SIRT1. The EC1.5 values for the activating compounds are represented by A (EC1.5<1.0 uM), B (EC1.5 1-25 uM), C (EC1.5>25 uM). The percent maximum fold activation is represented by A (Fold activation >200%) or B (Fold Activation <200%). “NT” indicates the compound was not tested in a particular assay.

Row | Structure (SMILES) | % Fold Act. (percent maximum fold activation) | EC1.5 (concentration of test compound that results in 150% activation of SIRT1)
1 | O=C(NCc1ccccn1)c1cccc2ccc(-c3cccc(C(F)(F)F)c3)nc12 [Compound 35] | B (Fold Activation <200%) | B (EC1.5 1-25 uM)
2 | O=C(NCc1cccnc1)c1cccc2ccc(-c3cccc(C(F)(F)F)c3)nc12 [Compound 36] | A (Fold activation >200%) | C (EC1.5>25 uM)
3 | O=C(NCc1ccncc1)c1cccc2ccc(-c3cccc(C(F)(F)F)c3)nc12 [Compound 37] | B (Fold Activation <200%) | B (EC1.5 1-25 uM)
4 | O=C(NC1CCOC1=O)c1cccc2ccc(-c3cccc(C(F)(F)F)c3)nc12 (stereo not drawn) [Compound 38] | A (Fold activation >200%) | B (EC1.5 1-25 uM)
5 | O=C(NC1CCOCC1)c1cccc2ccc(-c3cccc(C(F)(F)F)c3)nc12 [Compound 39] | B (Fold Activation <200%) | B (EC1.5 1-25 uM)
6 | O=C(NC1CCCC1)c1cccc2ccc(-c3cccc(C(F)(F)F)c3)nc12 [Compound 40] | – | C (EC1.5>25 uM)
7 | O=C(Nc1ccncn1)c1cccc2ccc(-c3cccc(C(F)(F)F)c3)nc12 [Compound 41] | A (Fold activation >200%) | A (EC1.5<1.0 uM)
8 | Cc1cnc(NC(=O)c2cccc3ccc(-c4cccc(C(F)(F)F)c4)nc23)s1 [Compound 42] | B (Fold Activation <200%) | A (EC1.5<1.0 uM)
9 | O=C(Nc1cccc2ccc(-c3ccccc3)nc12)C1CCNCC1 [Compound 43] | – | C (EC1.5>25 uM)
10 | CC(C)(C)c1nnc(NC(=O)c2cccc3ccc(-c4cccc(C(F)(F)F)c4)nc23)s1 [Compound 44] | B (Fold Activation <200%) | A (EC1.5<1.0 uM)
11 | O=C(Nc1nccs1)Nc1cccc2ccc(-c3cccc(OC(F)(F)F)c3)nc12 [Compound 45] | B (Fold Activation <200%) | A (EC1.5<1.0 uM)
12 | O=C(Nc1ccccn1)Nc1cccc2ccc(-c3cccc(OC(F)(F)F)c3)nc12 [Compound 46] | B (Fold Activation <200%) | A (EC1.5<1.0 uM)
13 | O=C(Nc1cccnc1)Nc1cccc2ccc(-c3cccc(OC(F)(F)F)c3)nc12 [Compound 47] | A (Fold activation >200%) | A (EC1.5<1.0 uM)
14 | O=C(Nc1ncccn1)c1cccc2ccc(-c3cccc(C(F)(F)F)c3)nc12 [Compound 48] | A (Fold activation >200%) | A (EC1.5<1.0 uM)
15 | Cc1ccnc(NC(=O)c2cccc3ccc(-c4cccc(C(F)(F)F)c4)nc23)n1 [Compound 49] | A (Fold activation >200%) | A (EC1.5<1.0 uM)
16 | Cc1noc(C)c1NC(=O)c1cccc2ccc(-c3cccc(C(F)(F)F)c3)nc12 [Compound 50] | – | C (EC1.5>25 uM)

Row | Structure (SMILES) | % Fold Act. (percent maximum fold activation) | EC1.5 (concentration of test compound that results in 150% activation of SIRT1)
17 | Cc1cc(NC(=O)c2cccc3ccc(-c4cccc(C(F)(F)F)c4)nc23)n(C)n1 [Compound 51] | A (Fold activation >200%) | B (EC1.5 1-25 uM)
18 | Cc1nc(NC(=O)c2cccc3ccc(-c4cccc(C(F)(F)F)c4)nc23)sc1C [Compound 52] | A (Fold activation >200%) | A (EC1.5<1.0 uM)
19 | Cc1cc(C)nc(NC(=O)c2cccc3ccc(-c4cccc(C(F)(F)F)c4)nc23)c1 [Compound 53] | A (Fold activation >200%) | A (EC1.5<1.0 uM)
20 | O=C(Nc1nc(-c2ccccc2)cs1)c1cccc2ccc(-c3cccc(C(F)(F)F)c3)nc12 [Compound 54] | – | C (EC1.5>25 uM)
21 | O=C(Nc1nc2ccccc2s1)c1cccc2ccc(-c3cccc(C(F)(F)F)c3)nc12 [Compound 55] | A (Fold activation >200%) | A (EC1.5<1.0 uM)
22 | O=C(Nc1ccc(Cl)cn1)c1cccc2ccc(-c3cccc(C(F)(F)F)c3)nc12 [Compound 56] | B (Fold Activation <200%) | A (EC1.5<1.0 uM)
23 | O=C(Nc1cccnc1Cl)c1cccc2ccc(-c3cccc(C(F)(F)F)c3)nc12 [Compound 57] | B (Fold Activation <200%) | B (EC1.5 1-25 uM)
24 | O=C(Nc1ccc(Cl)nc1)c1cccc2ccc(-c3cccc(C(F)(F)F)c3)nc12 [Compound 58] | B (Fold Activation <200%) | A (EC1.5<1.0 uM)
25 | Cc1cc(NC(=O)c2cccc3ccc(-c4cccc(C(F)(F)F)c4)nc23)sn1 [Compound 59] | A (Fold activation >200%) | A (EC1.5<1.0 uM)
26 | O=C(Nc1ccnc(Cl)c1)c1cccc2ccc(-c3cccc(C(F)(F)F)c3)nc12 [Compound 60] | A (Fold activation >200%) | A (EC1.5<1.0 uM)
27 | COC(=O)c1ccc(NC(=O)c2cccc3ccc(-c4cccc(C(F)(F)F)c4)nc23)o1 [Compound 61] | A (Fold activation >200%) | A (EC1.5<1.0 uM)
28 | O=C(Nc1nccs1)c1cc(F)cc2ccc(-c3cccc(C(F)(F)F)c3)nc12 [Compound 62] | – | C (EC1.5>25 uM)
29 | O=C(Nc1cccnc1)c1cc(F)cc2ccc(-c3cccc(C(F)(F)F)c3)nc12 [Compound 63] | – | C (EC1.5>25 uM)
30 | Cc1cc(-c2ccc3cccc(C(=O)Nc4ccccn4)c3n2)no1 [Compound 64] | – | C (EC1.5>25 uM)
31 | FC(F)(F)Oc1cccc(-c2ccc3cccc(NCc4ccccn4)c3n2)c1 [Compound 65] | – | C (EC1.5>25 uM)
